ChEMBL document CHEMBL3526033, “Identification of human liver cytochrome P450 enzymes involved in the metabolism of SCH 530348 (Vorapaxar), a potent oral thrombin protease-activated receptor 1 antagonist” (Drug Metab Dispos, 2011)
One block for each molecule: values may come before it.

Tests used:
Assay type in all cases: ADME
Cytochrome P450 4F3 [1] = target: T1, Cytochrome P450 4F3 (Homo sapiens, UniProt Q08477); experiment: Activity of human recombinant CYP4F3B assessed as enzyme-mediated drug metabolism treated with 25 uM vorapaxar after 120 mins by LC-MS/MS analysis in presence of NADPH; details: 2 h
T1 sequence (Q08477 whole entry): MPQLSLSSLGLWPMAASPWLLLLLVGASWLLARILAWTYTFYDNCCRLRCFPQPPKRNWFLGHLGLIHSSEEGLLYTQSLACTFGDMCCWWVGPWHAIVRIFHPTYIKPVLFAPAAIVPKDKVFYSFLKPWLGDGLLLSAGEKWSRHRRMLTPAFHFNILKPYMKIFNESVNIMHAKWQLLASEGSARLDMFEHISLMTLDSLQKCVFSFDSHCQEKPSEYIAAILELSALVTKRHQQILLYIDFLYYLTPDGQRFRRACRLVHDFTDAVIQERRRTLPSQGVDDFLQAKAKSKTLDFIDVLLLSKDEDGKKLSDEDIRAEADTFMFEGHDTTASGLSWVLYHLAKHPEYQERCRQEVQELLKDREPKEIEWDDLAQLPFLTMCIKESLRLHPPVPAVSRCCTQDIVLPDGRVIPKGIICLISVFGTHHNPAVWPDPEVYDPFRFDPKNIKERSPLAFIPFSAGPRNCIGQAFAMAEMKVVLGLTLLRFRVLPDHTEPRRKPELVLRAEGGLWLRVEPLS

Cytochrome P450 2A6 = Cytochrome P450 2A6 (Homo sapiens, UniProt P11509); experiment: Activity of human recombinant CYP2A6 assessed as enzyme-mediated drug metabolism treated with 25 uM vorapaxar after 120 mins by LC-MS/MS analysis in presence of NADPH; details: 2 h
Cytochrome P450 2A6, sequence (P11509 whole entry): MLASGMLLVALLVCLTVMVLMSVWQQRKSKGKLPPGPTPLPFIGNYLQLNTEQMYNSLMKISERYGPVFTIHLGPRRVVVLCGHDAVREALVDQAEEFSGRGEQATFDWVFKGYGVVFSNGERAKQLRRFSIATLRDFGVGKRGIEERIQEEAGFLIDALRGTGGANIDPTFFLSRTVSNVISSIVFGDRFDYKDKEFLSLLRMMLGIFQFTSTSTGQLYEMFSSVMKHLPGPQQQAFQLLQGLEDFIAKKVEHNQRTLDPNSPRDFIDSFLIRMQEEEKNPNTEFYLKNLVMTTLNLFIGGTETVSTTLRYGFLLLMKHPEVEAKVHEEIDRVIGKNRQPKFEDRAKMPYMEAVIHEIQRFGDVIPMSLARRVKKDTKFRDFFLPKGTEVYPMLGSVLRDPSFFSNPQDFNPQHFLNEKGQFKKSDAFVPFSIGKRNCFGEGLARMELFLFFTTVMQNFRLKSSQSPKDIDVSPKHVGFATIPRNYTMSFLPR

Cytochrome P450 4F3 [2] = target: T1, Cytochrome P450 4F3; experiment: Activity of human recombinant CYP4F3A assessed as enzyme-mediated drug metabolism treated with 25 uM vorapaxar after 120 mins by LC-MS/MS analysis in presence of NADPH; details: 2 h
Liver microsome = experiment: Drug metabolism in human liver microsomes assessed as 2-hydroxyethyl (1R,3aR,4aR,6R,8aR,9S,9aS)-9-((E)-2-(5-(3-fluorophenyl)pyridin-2-yl)vinyl)-1-methyl-3-oxododecahydronaphtho[2,3-c]furan-6-ylcarbamate formation at 25 uM after 120 mins by LC-MS/MS analysis in presence of NADPH; details: 2 h
Cytochrome P450 3A4 = Cytochrome P450 3A4 (Homo sapiens, UniProt P08684); experiment: Drug metabolism assessed as human recombinant CYP3A4-mediated 2-hydroxyethyl (1R,3aR,4aR,6R,8aR,9S,9aS)-9-((E)-2-(5-(3-fluorophenyl)pyridin-2-yl)vinyl)-1-methyl-3-oxododecahydronaphtho[2,3-c]furan-6-ylcarbamate formation at 25 uM after 120 mins by LC-MS/MS analysis in presence of astemizole; details: recombinant enzyme, 2 h
Cytochrome P450 3A4, sequence (P08684 whole entry): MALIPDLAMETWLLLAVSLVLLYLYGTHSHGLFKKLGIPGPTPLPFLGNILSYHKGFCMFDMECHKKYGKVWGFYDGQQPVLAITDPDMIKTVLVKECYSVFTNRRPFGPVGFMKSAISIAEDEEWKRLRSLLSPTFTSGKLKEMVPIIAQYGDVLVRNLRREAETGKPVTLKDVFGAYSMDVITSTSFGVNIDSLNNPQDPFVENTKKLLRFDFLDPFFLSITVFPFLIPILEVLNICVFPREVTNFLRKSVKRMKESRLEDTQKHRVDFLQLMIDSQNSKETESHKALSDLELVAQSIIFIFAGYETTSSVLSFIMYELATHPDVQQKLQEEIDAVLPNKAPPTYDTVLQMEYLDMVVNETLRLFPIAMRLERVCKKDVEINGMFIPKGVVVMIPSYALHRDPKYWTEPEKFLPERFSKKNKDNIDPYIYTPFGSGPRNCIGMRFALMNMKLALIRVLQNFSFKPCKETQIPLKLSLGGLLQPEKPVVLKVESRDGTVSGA

CYP2D6 = CYP2D6 (Homo sapiens, UniProt P10635); experiment: Activity of human recombinant CYP2D6 assessed as enzyme-mediated drug metabolism at 10 uM after 120 mins by LC-MS/MS analysis in presence of NADPH; details: read-out: Compound recovery
CYP2D6, sequence (P10635 whole entry): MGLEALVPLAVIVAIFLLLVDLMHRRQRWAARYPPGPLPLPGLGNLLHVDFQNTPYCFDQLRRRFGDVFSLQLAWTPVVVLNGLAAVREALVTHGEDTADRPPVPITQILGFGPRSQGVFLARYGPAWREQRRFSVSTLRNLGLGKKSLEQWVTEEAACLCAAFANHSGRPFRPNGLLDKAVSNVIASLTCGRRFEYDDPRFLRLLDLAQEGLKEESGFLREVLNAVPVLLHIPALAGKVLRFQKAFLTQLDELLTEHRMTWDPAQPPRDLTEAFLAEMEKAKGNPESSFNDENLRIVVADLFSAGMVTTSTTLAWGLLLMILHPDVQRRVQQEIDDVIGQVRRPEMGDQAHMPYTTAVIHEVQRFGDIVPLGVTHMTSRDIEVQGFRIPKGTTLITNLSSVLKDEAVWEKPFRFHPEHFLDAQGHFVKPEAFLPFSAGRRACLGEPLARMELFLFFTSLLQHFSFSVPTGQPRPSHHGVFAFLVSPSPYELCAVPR

CYP3A4 = CYP3A4 (Homo sapiens, UniProt P08684); experiment: Activity of human recombinant CYP3A4 assessed as enzyme-mediated drug metabolism at 10 uM after 120 mins by LC-MS/MS analysis in presence of NADPH; details: read-out: Compound recovery
CYP3A4, sequence (P08684 whole entry): as the sequence (P08684 whole entry) above

CYP3A5 = CYP3A5 (Homo sapiens, UniProt P20815); experiment: Activity of human recombinant CYP3A5 assessed as enzyme-mediated drug metabolism at 10 uM after 120 mins by LC-MS/MS analysis in presence of NADPH; details: read-out: Compound recovery
CYP3A5, sequence (P20815 whole entry): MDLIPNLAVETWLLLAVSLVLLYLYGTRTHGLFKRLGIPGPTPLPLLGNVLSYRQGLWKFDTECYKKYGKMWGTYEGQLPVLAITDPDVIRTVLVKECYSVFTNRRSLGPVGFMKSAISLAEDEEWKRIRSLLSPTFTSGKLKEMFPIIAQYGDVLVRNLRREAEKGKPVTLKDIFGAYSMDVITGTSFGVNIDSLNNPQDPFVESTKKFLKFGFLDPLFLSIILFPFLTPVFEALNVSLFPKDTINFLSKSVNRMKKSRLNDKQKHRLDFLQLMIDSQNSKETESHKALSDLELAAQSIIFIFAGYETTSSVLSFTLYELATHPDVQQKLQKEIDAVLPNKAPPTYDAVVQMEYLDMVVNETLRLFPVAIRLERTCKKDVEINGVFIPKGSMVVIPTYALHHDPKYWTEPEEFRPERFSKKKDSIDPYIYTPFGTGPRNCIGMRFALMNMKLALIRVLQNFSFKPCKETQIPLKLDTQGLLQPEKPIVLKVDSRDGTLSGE

Cytochrome P450 4F3 [3] = target: T1, Cytochrome P450 4F3; experiment: Activity of human recombinant CYP4F3A assessed as enzyme-mediated 2-hydroxyethyl (1R,3aR,4aR,6R,8aR,9S,9aS)-9-((E)-2-(5-(3-fluorophenyl)pyridin-2-yl)vinyl)-1-methyl-3-oxododecahydronaphtho[2,3-c]furan-6-ylcarbamate formation at 25 uM after 120 mins by LC-MS/MS analysis in presence of NADPH; details: 2 h
Cytochrome P450 2C19 = Cytochrome P450 2C19 (Homo sapiens, UniProt P33261); experiment: Activity of human recombinant CYP2C19 assessed as enzyme-mediated (3R,3aS,4S,4aR,7R,8aR,9aR)-7-amino-4-((E)-2-(5-(3-fluorophenyl)pyridin-2-yl)vinyl)-3-methyldecahydronaphtho[2,3-c]furan-1(3H)-one formation at 25 uM after 120 mins by LC-MS/MS analysis in presence of NADPH; details: 2 h
Cytochrome P450 2C19, sequence (P33261 whole entry): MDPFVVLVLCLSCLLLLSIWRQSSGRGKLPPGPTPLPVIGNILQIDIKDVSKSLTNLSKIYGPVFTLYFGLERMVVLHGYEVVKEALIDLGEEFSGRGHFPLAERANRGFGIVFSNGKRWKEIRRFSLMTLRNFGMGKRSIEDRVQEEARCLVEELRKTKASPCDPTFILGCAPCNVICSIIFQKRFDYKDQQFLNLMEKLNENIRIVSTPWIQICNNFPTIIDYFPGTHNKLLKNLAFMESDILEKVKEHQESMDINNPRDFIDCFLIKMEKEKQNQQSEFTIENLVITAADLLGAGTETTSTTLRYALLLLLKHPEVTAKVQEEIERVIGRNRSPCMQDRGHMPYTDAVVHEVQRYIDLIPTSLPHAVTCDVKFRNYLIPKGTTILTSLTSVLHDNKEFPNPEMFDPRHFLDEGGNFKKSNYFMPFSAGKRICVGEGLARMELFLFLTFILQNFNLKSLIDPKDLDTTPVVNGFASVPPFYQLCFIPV

Cytochrome P450 1A2 = target: T2, Cytochrome P450 1A2 (Homo sapiens, UniProt P05177); experiment: Activity of human recombinant CYP1A2 assessed as enzyme-mediated drug metabolism at 10 uM after 120 mins by LC-MS/MS analysis; details: 2 h
T2 sequence (P05177 whole entry): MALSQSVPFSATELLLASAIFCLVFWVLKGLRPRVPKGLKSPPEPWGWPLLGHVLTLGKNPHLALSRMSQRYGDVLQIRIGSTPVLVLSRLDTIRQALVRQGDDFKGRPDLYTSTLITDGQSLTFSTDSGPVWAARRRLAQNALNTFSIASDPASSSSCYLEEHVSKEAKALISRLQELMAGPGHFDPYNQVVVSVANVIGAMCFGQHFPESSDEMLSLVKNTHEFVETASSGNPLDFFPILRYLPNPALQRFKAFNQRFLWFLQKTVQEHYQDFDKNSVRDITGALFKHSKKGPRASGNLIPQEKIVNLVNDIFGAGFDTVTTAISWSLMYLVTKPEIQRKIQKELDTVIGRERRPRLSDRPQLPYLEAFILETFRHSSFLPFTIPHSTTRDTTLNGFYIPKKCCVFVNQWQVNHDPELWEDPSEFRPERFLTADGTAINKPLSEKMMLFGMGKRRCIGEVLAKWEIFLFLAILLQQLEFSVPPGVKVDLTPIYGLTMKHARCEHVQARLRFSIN

Cytochrome P450 2B6 = target: T3, Cytochrome P450 2B6 (Homo sapiens, UniProt P20813); experiment: Activity of human recombinant CYP2B6 assessed as enzyme-mediated drug metabolism at 10 uM after 120 mins by LC-MS/MS analysis; details: 2 h
T3 sequence (P20813 whole entry): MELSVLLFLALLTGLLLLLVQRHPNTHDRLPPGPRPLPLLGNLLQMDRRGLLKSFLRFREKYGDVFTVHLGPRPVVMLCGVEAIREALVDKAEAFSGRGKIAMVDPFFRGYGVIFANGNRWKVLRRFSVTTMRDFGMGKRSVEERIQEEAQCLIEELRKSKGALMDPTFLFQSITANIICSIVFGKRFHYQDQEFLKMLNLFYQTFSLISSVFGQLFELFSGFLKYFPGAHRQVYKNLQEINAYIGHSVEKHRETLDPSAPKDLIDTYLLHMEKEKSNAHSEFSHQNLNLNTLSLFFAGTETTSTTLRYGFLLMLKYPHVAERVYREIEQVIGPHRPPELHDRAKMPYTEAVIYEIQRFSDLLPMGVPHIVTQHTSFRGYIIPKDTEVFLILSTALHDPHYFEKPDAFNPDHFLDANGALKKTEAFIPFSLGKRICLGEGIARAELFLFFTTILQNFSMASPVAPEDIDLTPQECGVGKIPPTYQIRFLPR

Cytochrome P450 3A5 = Cytochrome P450 3A5 (Homo sapiens, UniProt P20815); experiment: Activity of human recombinant CYP3A5 assessed as enzyme-mediated drug metabolism at 10 uM after 120 mins by LC-MS/MS analysis; details: 2 h
Cytochrome P450 3A5, sequence (P20815 whole entry): as the sequence (P20815 whole entry) above

- Drug metabolism (Cytochrome P450 4F3 [1]): metabolite_detected
- Drug metabolism (Cytochrome P450 2A6): metabolite_detected
- Drug metabolism (Cytochrome P450 4F3 [2]): metabolite_detected
Compound: C[C@H]1OC(=O)[C@@H]2C[C@@H]3C[C@H](NC(=O)OCCO)CC[C@H]3[C@H](/C=C/c3ccc(-c4cccc(F)c4)cn3)[C@H]12

- Vmax (Liver microsome): 0.4 pmol/min
- Drug metabolism (Cytochrome P450 3A4): metabolite_not_detected
- remaining at 2 h, 10 µM (CYP2D6): 98.1%
- remaining at 2 h, 10 µM (CYP3A4): 72.5%
- remaining at 2 h, 10 µM (CYP3A5): 93.9%
Compound: CCOC(=O)N[C@@H]1CC[C@@H]2[C@@H](C1)C[C@H]1C(=O)O[C@H](C)[C@H]1[C@H]2/C=C/c1ccc(-c2cccc(F)c2)cn1 [VORAPAXAR]

- Drug metabolism (Cytochrome P450 4F3 [3]): metabolite_detected
- Drug metabolism (Cytochrome P450 2C19): metabolite_detected
- Drug metabolism (Cytochrome P450 1A2): metabolite_not_detected
- Drug metabolism (Cytochrome P450 2B6): metabolite_not_detected
- Drug metabolism (Cytochrome P450 3A5): metabolite_not_detected
Compound: CCOC(=O)N[C@@H]1CC[C@@H]2[C@@H](C1)C[C@H]1C(=O)O[C@H](C)[C@H]1[C@H]2/C=[14CH]/c1ccc(-c2cccc(F)c2)cn1
